The text below walks through data of US20130202719A1, “STABILIZED CHLORITE SOLUTIONS IN COMBINATION WITH FLUROPYRIMIDINES FOR CANCER” (NUVO RESEARCH AG, priority 2005, published 2013).

One series concerns the target T1, DPD (Homo sapiens, UniProt Q12882).
T1 construct: More than 80% of an administered dose of 5-FU is eliminated by catabolism through DPD
T1 sequence (Q12882 4-1025): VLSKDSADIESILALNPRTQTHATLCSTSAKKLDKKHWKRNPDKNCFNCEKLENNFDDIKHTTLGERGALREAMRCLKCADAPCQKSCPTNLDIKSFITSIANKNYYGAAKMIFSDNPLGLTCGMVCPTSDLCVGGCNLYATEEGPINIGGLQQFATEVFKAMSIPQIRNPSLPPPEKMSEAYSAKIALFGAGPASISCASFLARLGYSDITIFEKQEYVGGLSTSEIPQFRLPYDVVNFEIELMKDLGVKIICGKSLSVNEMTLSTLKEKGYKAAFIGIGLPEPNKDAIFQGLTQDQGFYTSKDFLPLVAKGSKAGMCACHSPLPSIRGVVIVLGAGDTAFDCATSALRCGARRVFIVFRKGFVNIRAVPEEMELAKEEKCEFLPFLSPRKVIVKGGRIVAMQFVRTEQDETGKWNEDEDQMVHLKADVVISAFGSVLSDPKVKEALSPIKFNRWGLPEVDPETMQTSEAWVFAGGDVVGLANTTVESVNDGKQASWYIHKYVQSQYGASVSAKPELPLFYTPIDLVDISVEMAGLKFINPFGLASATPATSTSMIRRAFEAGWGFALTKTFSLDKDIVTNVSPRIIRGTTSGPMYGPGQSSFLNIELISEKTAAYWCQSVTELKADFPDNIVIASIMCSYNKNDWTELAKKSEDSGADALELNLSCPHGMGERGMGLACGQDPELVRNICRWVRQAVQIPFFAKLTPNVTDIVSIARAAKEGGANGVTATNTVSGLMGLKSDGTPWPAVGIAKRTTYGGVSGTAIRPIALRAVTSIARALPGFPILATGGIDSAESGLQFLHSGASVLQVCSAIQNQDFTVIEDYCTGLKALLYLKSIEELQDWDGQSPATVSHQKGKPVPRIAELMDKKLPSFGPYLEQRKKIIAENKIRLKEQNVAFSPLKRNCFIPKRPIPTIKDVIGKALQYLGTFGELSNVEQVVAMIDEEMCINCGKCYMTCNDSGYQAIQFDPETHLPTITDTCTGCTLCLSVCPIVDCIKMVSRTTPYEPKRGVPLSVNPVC
To be noted: in vivo; cited from earlier work.

The conditions of series [1]: phase II study, advanced or metastatic pancreatic cancer; cited from earlier work.

Turning to `O=c1[nH]cc(F)c(=O)[nH]1` [5-FU, 5-Fluorouracil], the “administered dose eliminated by catabolism through DPD” value on DPD is given as “More than 80%”.
For `CCCCCOC(=O)Nc1nc(=O)n([C@@H]2O[C@H](C)[C@@H](O)[C@H]2O)cc1F` [capecitabine], the side effects entry (human, in vivo) is “development of Xeloda-related side effects”. Further, the Median survival in series [1] is recorded as 182 days.
For the compound `Nc1ccn([C@@H]2O[C@H](CO)[C@@H](O)C2(F)F)c(=O)n1` [gemcitabine], the disease progression entry (Case Report #3) is “rapidly progressing metastasis”. For the same compound, the QOL entry (Case Report #3, T4NxM1) is “declining QOL”.
